Assay [1] has as its system β-catenin. The assay can be described thus: β-catenin in brain, Post Stroke Model I. Type of assay: in vivo, rat. The conditions noted are these: all doses.
Assay [2] has as its system embolic occlusion of the middle cerebral artery (MCAO) in the rat. The experiment in a line: Post Stroke Recovery Model I (embolic MCAO). It is filed as in vivo. On the procedure: This study investigates the effect of compounds on volume of cerebral infarction, cell proliferation, and functional recovery after embolic occlusion of the middle cerebral artery (MCAO) in the rat.
Ten Rats, subjected to MCAO (Zhang R L, et. al., 1997 # 1), were randomly assigned to either Vehicle or Compound I-3 after MCAO. The treatment was administered once daily orally starting 24 hours after MCAo for 14 days. 5-bromo-2-deoxyuridine (BrdU, Sigma; 100 mg/kg, i.p.) is administered at 1 day after MCAO, and consecutively for 6 days. Functional assessments are performed before MCAO and at day 1, day 7 and day 14 after MCAO by an investigator who is blinded to the study. The assessment included Neurological Severity Score (mNSS) and Adhesive removal test score, described below. A total of twenty rats are sacrificed at 14 days after MCAO. Three contralateral hemispheres of each group are assigned for analysis. Volume of infarction and cell proliferation in the ipsilateral subventricular zone (SVZ) are measured.
Rats are tested for left forelimb somatosensory deficit with the adhesive removal test (Schallert T, et. al., 1984 # 3). Each animal received 3 trials by placing round strips of packing tape (1.2 cm in diameter) at each testing day and the mean time (seconds) required to remove stimuli from the left forelimb is was recorded.
All the animals are anesthetized with ketamine (44 mg/kg IM) and xylazine (13 mg/kg IM) and sacrificed at fourteen days after MCA occlusion. […] Infarct volumes are measured using a Global Lab Image analysis program (Data Translation). The area of both hemispheres and the area containing the ischemic neuronal damage (mm^2) are calculated by tracing the area on the computer screen. The lesion volume […] is determined by multiplying the appropriate area by the section interval thickness (Chen H, et al., 1992, # 4). […]
To visualize specificity of the immunohischemical reaction, immunostaining of BrdU (a monoclonal antibody against BrdU, 1:100, DAK) is employed. […] BrdU-immunoreactive nuclei in the SVZ are counted on a computer monitor to improve visualization. […]

A further assay deals with GSK-3 α/β pTYR. The assay can be described thus: pTYR biomarker analysis in brain, Post Stroke Model I. The conditions noted are these: all doses, termination of study. Type of assay: in vivo, rat. On the procedure:
To track the activity of Compound I-3 in the CNS of rats subjected to MCAO, brains were removed and protein lysate was obtained as described above from both vehicle treated and compound treated animals at the termination of the study. Lysates were analyzed by Western blot and probed for GSK-3 α/β pTYR levels.

Assay [3] deals with 5-FU treated C57BL/6 mice. The assay can be described thus: Leukocytopenia animal model (5-FU). It is filed as in vivo. From the text:
This study evaluates the hematopoietic recovery of peripheral blood and bone marrow cells following treatment with 5-FU (a myeloablative reagent) and compares the recoveries of various doses of the test compound with a cytokine known to enhance recovery rhG-CSF. The introduction of the chemotherapeutic agent causes a decrease in the peripheral blood white blood cell count and in particular, the neutrophil count. […] 5-FU acts by killing all the dividing cells, sparing primitive stem cells which are relatively quiescent and are thus not impacted by the treatment. Following treatment, primitive cells are recruited to proliferate and differentiate, thus re-establishing normal peripheral blood and femoral cell counts. This model may be used to evaluate compounds that could facilitate the recruitment and proliferation of the primitive cells and assess the kinetics of recovery of bone marrow as well as mature cell populations (white blood cells, red blood cells and platelets) in the blood.
One hundred and five C57BL/6 mice at 6-8 weeks of age were purchased from Jackson Labs. All, with the exception of the 4 untreated control mice were treated with 150 mg/kg 5-Fluorouracil (5-FU) interperitoneal (ip) at day 0. The four untreated mice (Group 1) were sacrificed on day 12 and they represent the “normal variability in blood and cell counts”. The 5-FU treated mice were divided equally into 4 distinct groups (Groups 2, 3, 4 and 5). On day −1 (the day before treatment with 5-FU) through to day 12, the mice in group 2 were treated at 8 a.m. and 6 p.m. with just solvent (20% PEG 400/10% Vitamin E TPGS/70% water) and served as the solvent control for groups 4 and 5.
Four mice from this group were sacrificed on days 4, 6, 8, 10 and 12 following the final dose of solvent the morning before sacrificing. On days 1 through 4, the mice in group three were dosed with 50 ug/kg rhG-CSF twice daily with 6 hours separating the daily doses. Four mice from this group were also sacrificed on days 4, 6, 8, 10 and 12. For treatment of test compound, groups 4 and 5, dosing was done as indicated above with the solvent control (2 times daily at 8 am and 6 pm) with compound that was prepared fresh each day.
Compound I-3 was weighed out into 13 vials and an appropriate amount of solvent added to achieve a final concentration for dosing at 30 mg/Kg (high dose). The compound was solubilized by sonication in solvent for 2-3 minutes and then 30% of the volume removed and diluted 1:3 with solvent to prepare compound for dosing at 10 mg/Kg (low dose). This was done daily and delivered to the animal technologist at 1 pm for the evening and next morning dosing. The unused compound was returned and frozen the next day when the freshly prepared sample for the next doses delivered. On days 1 through 12, mice in group 4 received the low dose of compound ([…]) and mice in group 5 received the high dose of compound (30 mg/Kg) twice daily. Four mice were sacrificed for each group on days 4, 6, 8, 10 and 12.
Each time mice were sacrificed from any of the groups, peripheral blood was collected in EDTA microtainer tubes by cardiac puncture. Approximately 400 uL of the blood was sent for analysis of blood indices (WBC, ANC, platelets, hemoglobin and hematocrit) at a central veterinary service laboratory using an automated system. The remainder of the blood was sent to STI where the plasma was separated by centrifugation at 8000 r.p.m. for 10 minutes and stored at −80° C. for future bioassays. Both femurs were also harvested and cells extracted and processed. The femoral cells were counted, red blood cells lysed and the cells subsequently prepared (at 5×10^6 cells/100 uL in Laemmli buffer and an equivalent unprocessed cell pellet) and stored at −80° C. for future protein analyses. Also on day 12, when the animals were sacrificed, their livers were removed and stored in 10% neutral formalin for future analysis. […]

The test system of another assay is GSK-3α/β pTYR. The assay can be described thus: Biomarker for leukocytopenia: pTYR in PBMC (Western blot). Type of assay: in vivo, mice. The following applies: all doses. Here is the method: To track the activity of Compound (I-3) in mice subjected to 5-FU treatment, peripheral blood was removed at time of sacrifice from both compound and vehicle-treated mice and a protein lysate was obtained from peripheral blood mononuclear cells (PBMC) after removal of red blood cells. Lysates were analyzed by Western blot and probed for GSK-3α/β pTYR levels.
In general terms: Immunoblotting shows a protein as a band on a membrane.

Assay [4] has as its system β-catenin. The experiment in a line: Biomarker for leukocytopenia: β-catenin in PBMC. Type of assay: in vivo, mice. The following applies: all doses.
Assay [5] relates to transient middle cerebral artery occlusion (MCAO) in rats. The conditions noted are these: after transient MCAO; cited from earlier work.
Where [6] appears, read: once daily orally starting 24 hours after MCAo for 14 days.

Turning to `Cc1nc(-c2ccccc2Cl)nc(Nc2n[nH]c3ccc(F)cc23)c1C` [Compound I-3], the “induction of β-catenin” value in the assay with β-catenin [1] and in the assay on β-catenin [4] was “no induction” throughout. For the same molecule, the “number of BrdU positive cells in the ipsilateral SVZ compared with vehicles” value in assay [2] (14 days after MCAO) is given as “significantly (p<0.05) increased”. In addition, the “adhesive removal test compared with vehicle group” value in assay [2] (setting [6]) was “significant (p<0.05) improvement”. The “mNSS test compared with vehicle group” value in assay [2] (setting [6]) is on record as “significant (p<0.05) improvement”. Also, in the assay on GSK-3 α/β pTYR, the “pTYR signal compared to vehicle treated rats” value is given as “significant reduction”. Also, the “WBC nadir (lowest cell count observed)” value in assay [3] (5-FU + Compound I-3 10 mg/Kg twice daily) and in assay [3] (5-FU + Compound I-3 30 mg/Kg twice daily) was 4 days each time. Also, the “kinetics of the WBC and ANC recovery” value in assay [3] (5-FU + high dose (30 mg/Kg twice daily)) was “enhanced”. Also, the “Bone marrow cellularity: recovery to normal values” in assay [3] (5-FU + high dose of test compound) worked out at 10 days. Besides, the “bone marrow cell counts versus 5-FU and rhG-CSF” value in assay [3] (5-FU and high dose, day 8) is reported as “significantly higher”. The “bone marrow cellularity nadir” value in assay [3] (5-FU and high dose, versus other groups) is given as “did not have as low a nadir as other groups”. The Platelet counts result in assay [3] (5FU + high dose, day 8) is “soared above the reference ranges”. Moreover, in assay [3] (Group 5 (high dose) versus Groups 3 and 4), the “kinetics of bone marrow cellular recovery” value was “fastest”. Also, the “WBC and ANC recovery compared to 5-FU and rhG-CSF” value in assay [3] (high dose) is listed as “comparable”. Also, in assay [3] (high dose, days 8 and 10), the “WBC and ANC recovery compared to 5-FU and solvent control” value is listed as “significantly increased”. The “pTYR signal compared to vehicle treated animals” value in the assay with GSK-3α/β pTYR is reported as “significant reduction”.

With “IGF-1: insulin growth factor-1, a known GSK-3 inhibitor”, the “infarct size in rat brains” value in assay [5] is reported as “reduced infarct size”.

B1: rhG-CSF: recombinant human granulocyte colony stimulating factor; a cytokine known to enhance recovery (protein, UniProt P09919 31-207, looked up)
Granulocyte …: TPLGPASSLPQSFLLKCLEQVRKIQGDGAALQEKLVSECATYKLCHPEELVLLGHSLGIPWAPLSSCPSQALQLAGCLSQLHSGLFLYQGLLQALEGISPELGPTLDTLQLDVADFATTIWQQMEELGMAPALQPTQGAMPAFASAFQRRAGGVLVASHLQSFLEVSYRVLRHLAQP
As for B1, the ANC nadir in assay [3] (5-FU + rhG-CSF 50 ug/kg twice daily) amounted to 4 days. The “WBC nadir (lowest cell count observed)” value in assay [3] (5-FU + rhG-CSF 50 ug/kg twice daily, days 1 through 4) was determined as 4 days. Moreover, in assay [3] (5-FU + rhG-CSF, day 8), the Platelet counts result is recorded as “soared above the reference ranges”. In addition, in assay [3] (5-FU + rhG-CSF, days 4 and 6), the “actual neutrophil counts (ANC)” value is reported as “almost non-detectable levels”.

The values are drawn from patent US20110224197A1, “PYRIMIDINES AND PYRIDINES USEFUL AS INHIBITORS OF PROTEIN KINASES” (Vertex Pharmaceuticals Incorporated, priority 2008, published 2011).
